Data reported in patent publication US5593984A, “Cephalosporin derivatives” (Yuhan Corporation, priority 1992, dated 1997).
In brackets after ≈: the same amount, converted by molar mass.

Tests used:
Format in all cases: cell-based
Staph. aureus C-57 = assay: MIC by agar dilution, Staph. aureus C-57; conditions: Staphylococcus aureus, C57, 17 h, Mueller-Hinton agar, read-out: Minimal Inhibitory Concentration (MIC)
In short: (§1)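 We determine inhibitory concentrations by agar dilution, incubating Mueller-Hinton agar plates at 35°-37° C. for 17±1 hours after inoculation with 10^6 CFU per ml of test strain.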

Prov. stuartii IFO 12930 = assay: MIC by agar dilution, Prov. stuartii IFO 12930; conditions: Providencia stuartii, IFO12930, 17 h, Mueller-Hinton agar, read-out: Minimal Inhibitory Concentration (MIC)
In short: as §1

E. coli No. 29 = assay: MIC by agar dilution, E. coli No. 29; conditions: Escherichia coli, 17 h; E. coli No. 29; agar dilution, Mueller-Hinton agar; read-out: Minimal Inhibitory Concentration (MIC)
In short: as §1

P. vulgaris NCTC 8313 = assay: MIC by agar dilution, P. vulgaris NCTC 8313; conditions: Proteus vulgaris, NCTC8313, 17 h; P. vulgaris NCTC 8313; agar dilution, Mueller-Hinton agar; read-out: Minimal Inhibitory Concentration (MIC)
In short: as §1

M. morganii DY-1 = assay: MIC by agar dilution, M. morganii DY-1; conditions: Morganella morganii, DY1, 17 h; M. morganii DY-1; agar dilution, Mueller-Hinton agar; read-out: Minimal Inhibitory Concentration (MIC)
In short: as §1

[1] = system: Ps. aeruginosa NCTC 10490; assay: MIC by agar dilution, Ps. aeruginosa NCTC 10490; conditions: Pseudomonas aeruginosa, NCTC10490, 17 h, Mueller-Hinton agar, read-out: Minimal Inhibitory Concentration (MIC)
In short: as §1

Ps. aeruginosa DY-2 = assay: MIC by agar dilution, Ps. aeruginosa DY-2; conditions: Pseudomonas aeruginosa, DY2, 17 h; Ps. aeruginosa DY-2; agar dilution, Mueller-Hinton agar; read-out: Minimal Inhibitory Concentration (MIC)
In short: as §1

Staph. aureus ATCC 6538P = assay: MIC by agar dilution, Staph. aureus ATCC 6538P; conditions: Staphylococcus aureus, ATCC6538P, 17 h; Staph. aureus ATCC 6538P; agar dilution, Mueller-Hinton agar; read-out: Minimal Inhibitory Concentration (MIC)
In short: as §1

Staph. aureus Smith = assay: MIC by agar dilution, Staph. aureus Smith; conditions: Staphylococcus aureus, 17 h, Mueller-Hinton agar, read-out: Minimal Inhibitory Concentration (MIC)
In short: as §1

[2] = system: S. epidermidis ATCC 12228; assay: MIC by agar dilution, S. epidermidis ATCC 12228; conditions: Staphylococcus epidermidis, ATCC12228, 17 h; S. epidermidis ATCC 12228; agar dilution, Mueller-Hinton agar; read-out: Minimal Inhibitory Concentration (MIC)
In short: as §1

Ent. cloacae IFO 13535 = assay: MIC by agar dilution, Ent. cloacae IFO 13535; conditions: Enterobacter cloacae, IFO13535, 17 h; Ent. cloacae IFO 13535; agar dilution, Mueller-Hinton agar; read-out: Minimal Inhibitory Concentration (MIC)
In short: as §1

Ent. aerogenes IFO 12979 = assay: MIC by agar dilution, Ent. aerogenes IFO 12979; conditions: Klebsiella aerogenes, IFO12979, 17 h, Mueller-Hinton agar, read-out: Minimal Inhibitory Concentration (MIC)
In short: as §1

[3] = system: Ps. aeruginosa ATCC 10145; assay: MIC by agar dilution, Ps. aeruginosa ATCC 10145; conditions: Pseudomonas aeruginosa, ATCC10145, 17 h, Mueller-Hinton agar, read-out: Minimal Inhibitory Concentration (MIC)
In short: as §1

E. coli DY-1 = assay: MIC by agar dilution, E. coli DY-1; conditions: Escherichia coli, DY1, 17 h; E. coli DY-1; agar dilution, Mueller-Hinton agar; read-out: Minimal Inhibitory Concentration (MIC)
In short: as §1

Staph. aureus C-5113 = assay: MIC by agar dilution, Staph. aureus C-5113; conditions: Staphylococcus aureus, C5113, 17 h, Mueller-Hinton agar, read-out: Minimal Inhibitory Concentration (MIC)
In short: as §1

E. coli NIHJ JC-2 = assay: MIC by agar dilution, E. coli NIHJ JC-2; conditions: Escherichia coli, NIHJJC2, 17 h; E. coli NIHJ JC-2; agar dilution, Mueller-Hinton agar; read-out: Minimal Inhibitory Concentration (MIC)
In short: as §1

K. pneumoniae NCTC 9632 = assay: MIC by agar dilution, K. pneumoniae NCTC 9632; conditions: Klebsiella pneumoniae, NCTC9632, 17 h; K. pneumoniae NCTC 9632; agar dilution, Mueller-Hinton agar; read-out: Minimal Inhibitory Concentration (MIC)
In short: as §1

B. subtilis ATCC 6633 = assay: MIC by agar dilution, B. subtilis ATCC 6633; conditions: Bacillus subtilis, ATCC6633, 17 h; B. subtilis ATCC 6633; agar dilution, Mueller-Hinton agar; read-out: Minimal Inhibitory Concentration (MIC)
In short: as §1

[4] = system: Ser. marcescens IFO 12648; assay: MIC by agar dilution, Ser. marcescens IFO 12648; conditions: Serratia marcescens, IFO12648, 17 h; Ser. marcescens IFO 12648; agar dilution, Mueller-Hinton agar; read-out: Minimal Inhibitory Concentration (MIC)
In short: as §1

Staph. aureus C-5216 = assay: MIC by agar dilution, Staph. aureus C-5216; conditions: Staphylococcus aureus, C5216, 17 h, Mueller-Hinton agar, read-out: Minimal Inhibitory Concentration (MIC)
In short: as §1

MIC (Staph. aureus C-57) [µg/mL]	MIC (Prov. stuartii IFO 12930) [µg/mL]	MIC (E. coli No. 29) [µg/mL]	MIC (P. vulgaris NCTC 8313) [µg/mL]	MIC (M. morganii DY-1) [µg/mL]	MIC [1] [µg/mL]	MIC (Ps. aeruginosa DY-2) [µg/mL]	MIC (Staph. aureus ATCC 6538P) [µg/mL]	MIC (Staph. aureus Smith) [µg/mL]	MIC [2] [µg/mL]	MIC (Ent. cloacae IFO 13535) [µg/mL]	MIC (Ent. aerogenes IFO 12979) [µg/mL]	MIC [3] [µg/mL]	MIC (E. coli DY-1) [µg/mL]	MIC (Staph. aureus C-5113) [µg/mL]	MIC (E. coli NIHJ JC-2) [µg/mL]	MIC (K. pneumoniae NCTC 9632) [µg/mL]	MIC (B. subtilis ATCC 6633) [µg/mL]	MIC [4] [µg/mL]	MIC (Staph. aureus C-5216) [µg/mL]	SMILES
50 (≈ 92 µM)	≤ 0.006	≤ 0.006	0.012 (≈ 0.0221 µM)	0.012 (≈ 0.0221 µM)	0.1 (≈ 0.184 µM)	3.13 (≈ 5.76 µM)	0.2 (≈ 0.368 µM)	0.78 (≈ 1.43 µM)	0.05 (≈ 0.092 µM)	0.05 (≈ 0.092 µM)	≤ 0.006	0.39 (≈ 0.717 µM)	≤ 0.006	3.13 (≈ 5.76 µM)	≤ 0.006	0.012 (≈ 0.0221 µM)	0.1 (≈ 0.184 µM)	0.012 (≈ 0.0221 µM)	0.78 (≈ 1.43 µM)	CON=C(C(=O)NC1C(=O)N2C(C(=O)[O-])=C(C[n+]3ccn4ccc(CO)c4c3)CSC12)c1csc(N)n1 (stereo not drawn) [Ex. 30, 7-β-[(Z)-2-(2-aminothiazol-4-yl)2-methoxyiminoacetamido]-3-(8-hydroxymethylpyrrolo[1,2-a]pyrazinium-2-yl)methyl-3-cephem-4-carboxylate]
25 (≈ 44.8 µM)	0.025 (≈ 0.0448 µM)	0.012 (≈ 0.0215 µM)	0.012 (≈ 0.0215 µM)	0.025 (≈ 0.0448 µM)	0.78 (≈ 1.4 µM)	3.13 (≈ 5.61 µM)	0.2 (≈ 0.359 µM)	1.56 (≈ 2.8 µM)	0.2 (≈ 0.359 µM)	0.2 (≈ 0.359 µM)	0.025 (≈ 0.0448 µM)	1.56 (≈ 2.8 µM)	≤ 0.006	6.25 (≈ 11.2 µM)	0.05 (≈ 0.0897 µM)	0.05 (≈ 0.0897 µM)	0.1 (≈ 0.179 µM)	0.05 (≈ 0.0897 µM)	3.13 (≈ 5.61 µM)	CCON=C(C(=O)NC1C(=O)N2C(C(=O)[O-])=C(C[n+]3ccn4ccc(CO)c4c3)CSC12)c1csc(N)n1 (stereo not drawn) [Ex. 31, 7-β-[(Z)-2-(2-aminothiazol-4-yl)2-ethoxyiminoacetamido]-3-(8-hydroxymethylpyrrolo[1,2-a]pyrazinium-2-yl)methyl-3-cephem-4-carboxylate]
25 (≈ 44.5 µM)	0.012 (≈ 0.0214 µM)	≤ 0.006	0.012 (≈ 0.0214 µM)	0.025 (≈ 0.0445 µM)	0.2 (≈ 0.356 µM)	3.13 (≈ 5.57 µM)	0.2 (≈ 0.356 µM)	0.78 (≈ 1.39 µM)	0.1 (≈ 0.178 µM)	0.1 (≈ 0.178 µM)	0.025 (≈ 0.0445 µM)	0.78 (≈ 1.39 µM)	≤ 0.006	3.13 (≈ 5.57 µM)	≤ 0.006	0.025 (≈ 0.0445 µM)	0.1 (≈ 0.178 µM)	0.05 (≈ 0.089 µM)	1.56 (≈ 2.78 µM)	Nc1nc(/C(=N/OCF)C(=O)N[C@@H]2C(=O)N3C(C(=O)[O-])=C(C[n+]4ccn5ccc(CO)c5c4)CS[C@H]23)cs1 [Ex. 32, 7-β-[(Z)-2-(2-aminothiazol-4-yl)2-fluoromethoxyiminoacetamido]-3-(8-hydroxymethylpyrrolo[1,2-a]pyrazinium-2-yl)methyl-3-cephem-4-carboxylate]
25 (≈ 45.6 µM)	≤ 0.006	≤ 0.006	≤ 0.006	≤ 0.006	0.2 (≈ 0.365 µM)	1.56 (≈ 2.85 µM)	0.2 (≈ 0.365 µM)	0.2 (≈ 0.365 µM)	0.05 (≈ 0.0912 µM)	0.05 (≈ 0.0912 µM)	0.025 (≈ 0.0456 µM)	0.78 (≈ 1.42 µM)	≤ 0.006	0.78 (≈ 1.42 µM)	0.012 (≈ 0.0219 µM)	0.012 (≈ 0.0219 µM)	0.2 (≈ 0.365 µM)	0.012 (≈ 0.0219 µM)	0.2 (≈ 0.365 µM)	CO/N=C(\C(=O)N[C@@H]1C(=O)N2C(C(=O)[O-])=C(C[n+]3ccn4ccc(Cl)c4c3)CS[C@H]12)c1csc(N)n1 [Ex. 33, 7-β-[(Z)-2-(2-aminothiazol-4-yl)2-methoxyiminoacetamido]-3-(8-chloropyrrolo[1,2-a]pyrazinium-2-yl)methyl-3-cephem-4-carboxylate]
